Values after ≈ are worked out from the molar mass of the structure shown. Read-outs that look alike come from different tables or passages of the source.
Columns and labels:
M. tuberculosis H37Rv [1] = test: microbe, parasite or virus in culture; type: cell-based
M. tuberculosis HN878 [2] = test: microbe, parasite or virus in culture; type: cell-based
M. tuberculosis H37Rv [3] = test: microbe, parasite or virus in culture; type: cell-based; conditions: Mycobacterium tuberculosis, read-out: MIC, 7H9 Broth, H37Rv
M. tuberculosis HN878 [4] = test: microbe, parasite or virus in culture; type: cell-based; remark: listed apart in the source
M. tuberculosis HN878 [5] = test: Pyrazinamide susceptibility by MGIT; type: cell-based; conditions: Mycobacterium tuberculosis, susceptibility determined by MGIT, read-out: MIC, HN878 (7H9 Broth)
M. tuberculosis H37Rv [6] = test: Pyrazinamide susceptibility by MGIT; type: cell-based; conditions: Mycobacterium tuberculosis, susceptibility determined by MGIT, read-out: MIC, H37Rv (7H9 Broth)
M. tuberculosis H37Rv [7] = type: in vivo, Mycobacterium tuberculosis
M. tuberculosis H37Rv [8] = conditions: in vivo, 25 mg/kg; cited from earlier work
[9] = plasma, week 4, Experiment 3, mean ± SD; for Concentration of Telacebec at steady state, 1h: 1 h post-dose; for Concentration of Telacebec at steady state, 5h: 5 h post-dose; for Concentration of Telacebec at steady state, 24h: 24 h post-dose
Description: For S587 and its M3 metabolite, the mean concentrations were compared between mice administered S587 alone and mice administered S587 in combination with T 10 mg/kg (T10), T 50 mg/kg (T50), and T10 plus C. For T, the mean concentrations were compared between mice administered T10 alone and T10 in combination with S587 and S587 + C, as well as between mice administered T50 alone and T50 in combination with S587.
Multidose PK of T and TBAJ-587 in plasma was characterized in infected female BALB/c mice (Charles River Laboratories, Wilmington, MA) receiving oral doses once daily. In week 4 of treatment in Experiment 3, three mice per group per time point were sampled by submandibular bleed at 1, 5, and 24 hours post-dose. Drug concentrations were quantified by a validated high-performance liquid chromatography/mass spectrometry method (Alliance Pharma Inc, Devault, PA).

M. tuberculosis = conditions: phase 2a study; cited from earlier work
[10] = Mycobacterium tuberculosis, H37RV; read-out: MIC, 7H11 Agar, H37Rv
[11] = Mycobacterium tuberculosis, HN878; read-out: MIC, 7H11 Agar, HN878
[12] = Mycobacterium tuberculosis, HN878; read-out: MIC, 7H9 Broth, HN878

COc1nc2ccc(Br)cc2cc1[C@@H](c1ccccc1)[C@@](O)(CCN(C)C)c1cccc2ccccc12 [Bedaquiline, bedaquiline]
MIC (M. tuberculosis H37Rv [1]; [10]): 0.03 µg/mL (≈ 0.054 µM) | MIC (M. tuberculosis HN878 [2]; [11]): 0.03 µg/mL (≈ 0.054 µM) | MIC (M. tuberculosis H37Rv [3]): 0.25 µg/mL (≈ 0.45 µM)

CC(C)/N=c1\cc2n(-c3ccc(Cl)cc3)c3ccccc3nc-2cc1Nc1ccc(Cl)cc1 [Clofazimine, clofazimine]
MIC (M. tuberculosis H37Rv [1]; [10]): 0.25 µg/mL (≈ 0.528 µM) | MIC (M. tuberculosis HN878 [2]; [11]): 0.25 µg/mL (≈ 0.528 µM)

CC(=O)NC[C@H]1CN(c2ccc(N3CCOCC3)c(F)c2)C(=O)O1 [Linezolid, linezolid]
MIC (M. tuberculosis H37Rv [1]; [10]): 0.5 µg/mL (≈ 1.48 µM) | MIC (M. tuberculosis HN878 [4]; [12]): 0.5 µg/mL (≈ 1.48 µM) | MIC (M. tuberculosis H37Rv [3]): 1 µg/mL (≈ 2.96 µM)

COc1c(N2C[C@@H]3CCCN[C@@H]3C2)c(F)cc2c(=O)c(C(=O)O)cn(C3CC3)c12 [Moxifloxacin, moxifloxacin]
MIC (M. tuberculosis HN878 [4]; [12]): 0.25 µg/mL (≈ 0.623 µM) | MIC (M. tuberculosis H37Rv [3]): 0.5 µg/mL (≈ 1.25 µM)

O=[N+]([O-])c1cn2c(n1)OC[C@@H](OCc1ccc(OC(F)(F)F)cc1)C2 [Pretomanid, pretomanid]
MIC (M. tuberculosis H37Rv [1]; [10]): 0.06 µg/mL (≈ 0.167 µM) | MIC (M. tuberculosis HN878 [4]; [12]): 0.06 µg/mL (≈ 0.167 µM) | MIC (M. tuberculosis HN878 [2]; [11]): 0.125 µg/mL (≈ 0.348 µM) | MIC (M. tuberculosis H37Rv [3]): 0.125 µg/mL (≈ 0.348 µM)

NC(=O)c1cnccn1 [Pyrazinamide, pyrazinamide]
MIC (M. tuberculosis HN878 [5]): < 100 µg/mL | MIC (M. tuberculosis H37Rv [6]): < 100 µg/mL

CO[C@H]1/C=C/O[C@@]2(C)Oc3c(C)c(O)c4c(O)c(c(/C=N/N5CCN(C)CC5)c(O)c4c3C2=O)NC(=O)/C(C)=C\C=C\[C@H](C)[C@H](O)[C@@H](C)[C@@H](O)[C@@H](C)[C@H](OC(C)=O)[C@@H]1C [Rifampin]
MIC (M. tuberculosis HN878 [4]; Mycobacterium tuberculosis, HN878, read-out: MIC, 7H9 Broth, HN878): 0.25 µg/mL (≈ 0.304 µM) | MIC (M. tuberculosis H37Rv [3]): 0.25 µg/mL (≈ 0.304 µM)

COc1ncnc(Cn2cc(C(=O)NCCO)c3ncc(C)cc32)c1C [TBA-7371]
MIC (M. tuberculosis H37Rv [1]; [10]): 0.25 µg/mL (≈ 0.703 µM) | MIC (M. tuberculosis HN878 [2]; [11]): 0.5 µg/mL (≈ 1.41 µM)

COc1cc([C@](O)(CCN(C)C)[C@@H](c2cc3cc(Br)ccc3nc2OC)c2cccc(OC)c2F)cc(OC)n1 [TBAJ-587]
MIC (M. tuberculosis H37Rv [1]; Mycobacterium tuberculosis, H37RV, read-out: MIC, 7H11 Agar, H37Rv): 0.008 µg/mL (≈ 0.013 µM) | mean (±SD) log10 CFU counts, W4 (M. tuberculosis H37Rv [7]; in vivo): 3.40 ± 0.47 log10 CFU | reduction of bacterial burden over 4 weeks (M. tuberculosis H37Rv [7]; in vivo, 12.5 mg/kg): more than 4 log10 | reduction of lung CFU count over 4 weeks (M. tuberculosis H37Rv [8]): approximately 5 log10 | MIC (M. tuberculosis HN878 [2]; Mycobacterium tuberculosis, HN878, read-out: MIC, 7H11 Agar, HN878): 0.004 µg/mL (≈ 0.00651 µM)

COc1cc([C@](O)(CCN(C)C)[C@@H](c2cc3cc(Br)ccc3nc2OC)c2cc(OC)nc(OC)c2OC)cc(OC)n1 [TBAJ-876]
MIC (M. tuberculosis H37Rv [1]; [10]): 0.002 to 0.004 µg/mL (≈ 0.00304 to 0.00608 µM) | reduction of CFU counts over 4 weeks compared to D0 (M. tuberculosis H37Rv [7]; Experiment 2, S876 6.25 mg/kg, 4 weeks): more than 3.5 log10 | mean (±SD) log10 CFU counts, W4 (M. tuberculosis H37Rv [7]; Experiment 2, lungs, 4 weeks of treatment, doses mg/kg/dose as subscripts, bid = twice daily, D0 7.51 ± 0.06, lower limit of detection 1.66 log10): 3.74 ± 0.44 log10 CFU | MIC (M. tuberculosis HN878 [2]; [11]): 0.004 µg/mL (≈ 0.00608 µM)

CCc1nc2ccc(Cl)cn2c1C(=O)NCc1ccc(N2CCC(c3ccc(OC(F)(F)F)cc3)CC2)cc1 [Telacebec, telacebec]
MIC (M. tuberculosis H37Rv [1]; Mycobacterium tuberculosis, 432 h; parental H37Rv strain; agar proportion method; […]; read-out: MIC): 0.008 µg/mL (≈ 0.0144 µM) | MIC (M. tuberculosis H37Rv [1]; [10]): 0.008 µg/mL (≈ 0.0144 µM) | effect of single drug treatment on lung CFU counts compared to D0 (M. tuberculosis H37Rv [7]; Experiment 3, T at 10 and 50 mg/kg, 4 weeks, no dose-response): bacteriostatic | mean (±SD) log10 CFU counts, W4 (M. tuberculosis H37Rv [7]; Experiment 3, lungs, 4 weeks of treatment, T at 10 mg/kg where given, S587 12.5, C 12.5, Z 150 mg/kg, D0 7.52 ± 0.13): 7.65 ± 0.05 log10 CFU | mean (±SD) log10 CFU counts, W4 (M. tuberculosis H37Rv [7]; Experiment 3, lungs, 4 weeks of treatment, T at 50 mg/kg, S587 12.5 mg/kg, D0 7.52 ± 0.13): 7.70 ± 0.06 log10 CFU | Concentration of Telacebec at steady state, 1h ([9]; T 10 mg/kg): 1462 ± 435 ng/mL | Concentration of Telacebec at steady state, 1h ([9]; T 50 mg/kg): 2642 ± 1857 ng/mL | Concentration of Telacebec at steady state, 5h ([9]; T 10 mg/kg): 2265 ± 102 ng/mL | Concentration of Telacebec at steady state, 5h ([9]; T 50 mg/kg): 7310 ± 3990 ng/mL | Concentration of Telacebec at steady state, 24h ([9]; T 10 mg/kg): 921 ± 337 ng/mL | Concentration of Telacebec at steady state, 24h ([9]; T 50 mg/kg): 3008 ± 330 ng/mL | MIC (M. tuberculosis HN878 [2]; [11]): 0.002 µg/mL (≈ 0.00359 µM) | early bactericidal activity in TB patients (M. tuberculosis): dose-dependent early bactericidal activity
